How the values were obtained:
BaF3 NPM-ALK L1152R = target: T1, BaF3 NPM-ALK L1152R (Homo sapiens, UniProt Q9UM73, L1152R, cells depend on it); assay: Tritiated thymidine uptake cell proliferation assay, BaF3 NPM-ALK L1152R; assay type: cell-based, murine; details: cell line BaF3 NPM-ALK L1152R; read-out: IC50 of cellular proliferation, BaF3 NPM-ALK L1152R
T1 construct: fused on or other part: P06748 (Nucleophosmin)
Procedure: Method: Tritiated Thymidine Uptake Cell Proliferation Assay
The following procedure was used with parent untransformed BaF3 cells, BaF3 cells transformed with the oncogenic fusion protein NPM/ALK, NPM/ALK positive SUDHL-1 cells, NPM/ALK positive SUPM2, ALK-negative HL60 cells, NPM/ALK positive KARPAS-299 cells. The parent untransformed BaF3 cells or Alk-negative HL60 cells are used as controls. Cells were seeded in U-bottomed 96-well plates at 10000 cells/well in a volume of 100 μl in supplemented medium. In the case of the parent untransformed BaF3 cells, the medium was supplemented with IL-3. Serial dilutions of inhibitors were added to the appropriate wells and volumes adjusted to 200 μl. Controls were treated with the equivalent volume of vehicle, DMSO, alone. Plates were incubated at 37° C. for 72 h. 3[H]-thymidine (1 μCi/well) was added for the last 16 h of incubation. Cells were harvested on to paper filters and 3[H]-thymidine incorporation was measured using a scintillation counter (1430 MicroBeta, Wallac, Turku, Finland). The 50% inhibitory concentration (IC50) was defined as the concentration of inhibitor, expressed in nanomolar units, that gave a 50% decrease in 3[H]-thymidine uptake compared with controls.
In Table 4 are reported the IC50 of cellular proliferation assays of example 3 versus ALK positive, mutated and negative cell lines.

DDR2 wild-type = target: T2, DDR2 wild-type (Homo sapiens, UniProt Q16832); assay: Radiometric protein kinase assay (33PanQuinase Activity Assay), DDR2 wild-type; assay type: biochemical; details: ATP 1.0 μM
T2 construct: either as full-length or enzymatically active fragments; purchased ProQinase GmbH (Freiburg, Germany)
T2 sequence (Q16832 22-855): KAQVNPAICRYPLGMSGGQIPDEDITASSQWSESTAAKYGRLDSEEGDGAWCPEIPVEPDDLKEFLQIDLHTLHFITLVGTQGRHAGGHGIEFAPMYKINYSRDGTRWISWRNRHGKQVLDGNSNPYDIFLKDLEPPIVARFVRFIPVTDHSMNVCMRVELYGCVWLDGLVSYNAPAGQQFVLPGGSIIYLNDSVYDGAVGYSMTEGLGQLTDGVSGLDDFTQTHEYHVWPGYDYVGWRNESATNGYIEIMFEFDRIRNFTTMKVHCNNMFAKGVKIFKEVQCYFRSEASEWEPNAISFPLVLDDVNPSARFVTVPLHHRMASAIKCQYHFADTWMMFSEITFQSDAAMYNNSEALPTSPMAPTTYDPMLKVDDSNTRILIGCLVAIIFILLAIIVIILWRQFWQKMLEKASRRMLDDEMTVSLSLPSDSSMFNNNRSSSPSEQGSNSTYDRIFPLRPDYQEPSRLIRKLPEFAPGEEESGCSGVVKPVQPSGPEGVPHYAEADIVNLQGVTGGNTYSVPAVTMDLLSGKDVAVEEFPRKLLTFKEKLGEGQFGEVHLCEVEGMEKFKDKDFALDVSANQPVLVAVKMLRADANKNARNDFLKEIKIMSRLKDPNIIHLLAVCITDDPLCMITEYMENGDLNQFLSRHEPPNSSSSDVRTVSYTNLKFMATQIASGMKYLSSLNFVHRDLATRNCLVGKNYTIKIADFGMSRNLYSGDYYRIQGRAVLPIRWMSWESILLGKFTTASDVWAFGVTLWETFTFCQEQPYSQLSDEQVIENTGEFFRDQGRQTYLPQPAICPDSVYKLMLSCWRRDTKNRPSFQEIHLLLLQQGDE
Procedure: A proprietary radiometric protein kinase assay (33PanQuinase® Activity Assay) developed by ProQuinase GmbH (Freiburg, Germany) was used for measuring the kinase activity of selected protein kinases. All assays were performed in FlashPlates™ wells 96 Perkin Elmer (Boston, Mass., USA) in a reaction volume of 50 μl. The reaction mixture was obtained in 4 steps in the following order: • 1. 10 μl of a solution of non-radioactive ATP in water; • 2. 25 μl of assay buffer/[γ-^33P]-ATP mixture • 3. 5 μl of test sample in 10% DMSO • 4. 10 μl of enzyme/substrate mixture
All protein kinases provided by ProQinase were expressed in Sf9 insect cells or in E. coli as recombinant GST-fusion proteins or His-tagged proteins, either as full-length or enzymatically active fragments. […] Kinases from external vendors (CAR=Carna Biosciences Inc.; INV=Life Technologies (Invitrogen Corporation); MIL=Merck-Millipore (Millipore Corporation), were expressed, purified and quality-controlled by virtue of the vendors readings.
A stock solution of compound of formula (I) was diluted to 5×10-04M/100% DMSO. […] Incorporation of 33Pi (counting of “cpm”) was determined with a microplate scintillation counter (Microbeta, Wallac). […]
Based on each 10 corresponding residual activities, IC50 values were calculated using Prism 5.04 for Windows (Graphpad, San Diego, Calif.). […]

T1 sequence (Q9UM73 whole entry L1152R, the tested form may be a part): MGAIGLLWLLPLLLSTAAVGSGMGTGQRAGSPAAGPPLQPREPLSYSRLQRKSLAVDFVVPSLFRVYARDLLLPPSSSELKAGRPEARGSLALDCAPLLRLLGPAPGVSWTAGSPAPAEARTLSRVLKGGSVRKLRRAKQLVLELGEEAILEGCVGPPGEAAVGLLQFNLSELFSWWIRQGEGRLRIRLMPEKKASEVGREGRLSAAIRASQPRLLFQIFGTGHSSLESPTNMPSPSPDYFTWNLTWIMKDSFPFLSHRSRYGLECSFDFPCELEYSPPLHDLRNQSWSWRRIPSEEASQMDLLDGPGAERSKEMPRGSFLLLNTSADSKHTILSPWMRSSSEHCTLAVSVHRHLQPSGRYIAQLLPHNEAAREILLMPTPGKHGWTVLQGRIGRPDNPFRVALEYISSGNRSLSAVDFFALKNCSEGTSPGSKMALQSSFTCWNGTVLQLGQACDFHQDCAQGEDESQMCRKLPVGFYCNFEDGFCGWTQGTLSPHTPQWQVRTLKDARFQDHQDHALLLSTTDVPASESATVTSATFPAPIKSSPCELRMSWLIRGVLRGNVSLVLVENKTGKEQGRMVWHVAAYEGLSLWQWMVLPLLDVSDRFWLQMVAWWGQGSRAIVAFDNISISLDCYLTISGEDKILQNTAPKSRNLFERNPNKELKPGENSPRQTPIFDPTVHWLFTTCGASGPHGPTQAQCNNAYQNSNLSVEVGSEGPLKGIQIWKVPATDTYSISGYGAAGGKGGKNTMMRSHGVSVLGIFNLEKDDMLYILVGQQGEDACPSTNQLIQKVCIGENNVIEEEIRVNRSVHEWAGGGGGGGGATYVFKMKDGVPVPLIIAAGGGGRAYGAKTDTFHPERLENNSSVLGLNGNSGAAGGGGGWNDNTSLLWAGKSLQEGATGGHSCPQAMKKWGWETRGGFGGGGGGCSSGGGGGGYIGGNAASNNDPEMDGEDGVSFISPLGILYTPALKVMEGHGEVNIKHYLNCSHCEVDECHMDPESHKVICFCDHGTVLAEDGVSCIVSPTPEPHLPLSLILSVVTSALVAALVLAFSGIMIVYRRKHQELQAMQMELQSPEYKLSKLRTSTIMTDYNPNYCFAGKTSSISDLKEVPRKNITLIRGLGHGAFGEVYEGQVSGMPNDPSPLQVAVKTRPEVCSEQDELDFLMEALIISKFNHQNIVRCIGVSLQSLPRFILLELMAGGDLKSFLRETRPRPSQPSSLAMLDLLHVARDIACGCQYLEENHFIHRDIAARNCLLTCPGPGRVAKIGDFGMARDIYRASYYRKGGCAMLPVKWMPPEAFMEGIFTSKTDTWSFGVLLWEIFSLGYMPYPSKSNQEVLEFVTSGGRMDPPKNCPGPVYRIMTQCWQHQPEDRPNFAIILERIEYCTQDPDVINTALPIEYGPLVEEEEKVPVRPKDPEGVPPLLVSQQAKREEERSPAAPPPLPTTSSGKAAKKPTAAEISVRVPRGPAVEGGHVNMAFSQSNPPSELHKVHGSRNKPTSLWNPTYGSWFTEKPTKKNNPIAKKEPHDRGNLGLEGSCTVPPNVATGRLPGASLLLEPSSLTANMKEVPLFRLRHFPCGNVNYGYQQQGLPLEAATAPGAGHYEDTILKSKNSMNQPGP

## CN1CCN(c2ccc(C(=O)Nc3n[nH]c4cc(-c5ccc(O)cc5)c(Cc5cc(F)cc(F)c5)cc34)c(NC3CCOCC3)c2)CC1 [Example 3, N-[5-[(3,5-difluorophenyl)methyl]-6-(4-hydroxyphenyl)-1H-indazol-3-yl]-4-(4-methylpiperazin-1-yl)-2-(tetrahydropyran-4-ylamino)benzamide]
BaF3 NPM-ALK L1152R
  GI50: 18 nM
DDR2 wild-type
  IC50: 150 nM

Source: patent publication US10336707B2, “Heterocyclic derivatives modulating activity of certain protein kinases” (EUDENDRON S.R.L., priority 2014, dated 2019)
